Test results from patent US8940863B2, “Selective anticancer chimeric peptides which bind neuropilin receptor” (Stella Pharma Corporation, priority 2008, dated 2015).
Read-outs that look alike come from different tables or passages of the source. Each block holds one molecule with its values, some of them ahead of it. Non-standard residues stand in square brackets, D forms with d. Residues, ends and D or L forms follow the SMILES beside them. No end group written: not given here.

Legend:
[1] = tested on: HC cell (hepatocyte cell); assay: Cell viability assay (WST-8); format: cell-based, human; settings: Human normal hepatocyte cell; 48 hours (Table 8); read-out: IC50
Text: (§1) Correlation between IC50 values was observed.

MRC-5 = assay: Cell viability assay (WST-8)
SU.86.86 = settings: for IC50: 48 h
SU8686 = assay: Annexin V flow cytometry; format: cell-based, human; settings: 10 μM, three hours at 37° C.
Procedure: SU8686 cells were incubated with Sema3A (363-377)-kLytic peptide (10 μM) for three hours at 37° C., and were analyzed for Annexin V labeling by dual-color flow cytometry.

[2] = tested on: PE cell (pancreatic epidermal); assay: Cell viability assay (WST-8); format: cell-based
Text: as §1

U251 = settings: 72 h
A172 = assay: Cell viability assay (WST-8); format: cell-based; settings: 72 h
KCCT873 = assay: Cell viability assay (WST-8); format: cell-based; settings: 72 h
WI-38 = settings: 72 h
HEK293T = format: cell-based
HuCCT-1 = settings: 48 h
T47D = assay: Cell viability assay (WST-8); format: cell-based, human
Text: as §1

H322 = settings: H322; 72 hours
[3] = biological target: recombinant human EGF receptor (rhEGFR) (Homo sapiens, UniProt P00533); assay: BIACORE binding to EGFR protein
Procedure: Surface plasmon resonance (SPR) experiments were performed with a BIACORE biosensor system 3000 (BIACORE Inc., Uppsala, Sweden). About 5000 RU of streptavidin (Sigma) was immobilized on the surface of CM5 sensor chips via N-hydroxysuccinimide and N-ethyl-N′-(dimethylaminopropyl) carbodiimide activation chemistry, and then 2000-3000 RU of peptide conjugated with biotin were injected over the streptavidin-immobilized sensor chip. As a control of nonspecific binding, the unreacted carboxymethyl groups of a sensor chip without immobilized streptavidin were blocked with ethanolamine. As an analyte, cell surface proteins which were prepared using the Mem-PER eukaryotic membrane protein extraction reagent kit (Pierce) were injected over the flow-cell in the flow rate of […]. at 25° C. […] All protein concentrations used in these experiments were determined by the Bradford method (Bradford M M. A rapid and sensitive method for the quantitation of microgram quantities of protein utilizing the principle of protein-dye binding. Anal Biochem 1976; 72:248-54). […]
Among the aforementioned mutated peptides, first, paying attention to the second H which has charge, K- and R-mutants were chemically synthesized. As described in Example 1, using BIACORE, binding affinity with recombinant human EGFR was evaluated by comparison with that of wild-type EGFR-binding peptide. […]

IC50 (BxPC-3; 48 h): 5.7 ± 2.3 µM
IC50 (CFPAC-1; 48 h): 6.7 ± 0.1 µM
IC50 (SU.86.86): 5.2 ± 0.4 µM
IC50 (Panc-1; 48 h): 13 ± 2.7 µM
Molecule: CC(C)C[C@H](NC(=O)[C@H](CC(C)C)NC(=O)[C@@H](CCCCN)NC(=O)[C@@H](CCCCN)NC(=O)[C@H](CC(C)C)NC(=O)[C@@H](CC(C)C)NC(=O)[C@H](CCCCN)NC(=O)[C@H](CC(C)C)NC(=O)[C@@H](CC(C)C)NC(=O)[C@H](CC(C)C)NC(=O)[C@H](CCCCN)NC(=O)CNC(=O)CNC(=O)CNC(=O)[C@H](CCCNC(=N)N)NC(=O)[C@@H]1CCCN1C(=O)[C@H](Cc1ccc(O)cc1)NC(=O)[C@@H]1CCCN1C(=O)[C@@H](NC(=O)[C@H](CCCNC(=N)N)NC(=O)CNC(=O)[C@H](CCC(N)=O)NC(=O)[C@H](Cc1ccc(O)cc1)NC(=O)[C@@H]1CCCN1C(=O)[C@@H](NC(=O)[C@H](Cc1c[nH]c2ccccc12)NC(=O)[C@H](CCC(N)=O)NC(=O)[C@H](Cc1ccc(O)cc1)NC(=O)[C@@H](N)CC(N)=O)C(C)C)C(C)C)C(=O)N[C@@H](CCCCN)C(=O)N[C@H](CC(C)C)C(=O)N[C@@H](CC(C)C)C(=O)N[C@@H](CCCCN)C(=O)N[C@@H](CCCCN)C(=O)N[C@@H](CCCCN)C(=O)O [Sema3A(aa363-377)-kLytic] (H-NYQWVPYQGRVPYPRGGGKL[dL]LK[dL]L[dK][dK]LLK[dL]LKKK-OH; N-terminus and C-terminus assumed)
IC50 [1]: 37.5 µM
IC50 (MRC-5; MRC-5 normal cells, 48 hours (Table 8)): > 50 µM
Annexin V-positive dead cells (SU8686; listed as Sema3A (363-377)-kLytic): increased
Annexin V-positive dead cells (SU8686; listed as Sema3A(363-377)-kLytic): induces Annexin V-positive expression
IC50 ([2]; Pancreatic epidermal cell, normal cells, 48 hours (Table 8), read-out: IC50): > 20 µM

IC50 (U251): 6.6 ± 0.4 µM
IC50 (MDA-MB-231; 72 h): 5.7 ± 0.4 µM
IC50 (BxPC-3; 72 h): 6.8 ± 0.3 µM
Molecule: CC[C@H](C)[C@H](NC(=O)[C@H](CC(C)C)NC(=O)[C@H](CCC(N)=O)NC(=O)[C@@H](N)CCCCN)C(=O)N[C@@H](CCCNC(=N)N)C(=O)N[C@@H](Cc1ccccc1)C(=O)N[C@@H](CC(C)C)C(=O)N[C@@H](CCCCN)C(=O)N[C@@H](CCCNC(=N)N)C(=O)N[C@@H](CC(C)C)C(=O)N[C@@H](CC(=O)O)C(=O)N[C@@H](CCCNC(=N)N)C(=O)N[C@@H](CC(N)=O)C(=O)NCC(=O)NCC(=O)NCC(=O)N[C@@H](CCCCN)C(=O)N[C@@H](CC(C)C)C(=O)N[C@H](CC(C)C)C(=O)N[C@@H](CC(C)C)C(=O)N[C@@H](CCCCN)C(=O)N[C@H](CC(C)C)C(=O)N[C@@H](CC(C)C)C(=O)N[C@H](CCCCN)C(=O)N[C@H](CCCCN)C(=O)N[C@@H](CC(C)C)C(=O)N[C@@H](CC(C)C)C(=O)N[C@@H](CCCCN)C(=O)N[C@H](CC(C)C)C(=O)N[C@@H](CC(C)C)C(=O)N[C@@H](CCCCN)C(=O)N[C@@H](CCCCN)C(=O)N[C@@H](CCCCN)C(=O)O [IL4-lytic (L, D)] (H-KQLIRFLKRLDRNGGGKL[dL]LK[dL]L[dK][dK]LLK[dL]LKKK-OH; N-terminus and C-terminus assumed)
IC50 (A172): 6.8 ± 0.4 µM
IC50 (KCCT873): 5.9 ± 0.6 µM
IC50 (WI-38): 16.1 ± 0.5 µM
IC50 (HEK293T; 72 h): 14.2 ± 1.3 µM
IC50 ([2]; PE normal cells, 72 hours, Mean ± SD (Table 4), read-out: IC50): > 20 µM

IC50 (MDA-MB-231; 48 h): 8.1 µM
IC50 (HuCCT-1): 7.9 µM
IC50 (BxPC-3; 48 h): 14.7 µM
IC50 (T47D; 48 h): 3.7 µM
IC50 (BT-20; 48 h): 11.4 µM
IC50 (CFPAC-1; 48 h): 9.2 µM
IC50 (SK-BR-3; 48 h): 14.5 µM
IC50 (SU.86.86): 8 µM
IC50 (Panc-1; 48 h): 14.1 µM
Molecule: CC(C)C[C@H](NC(=O)[C@H](CCCCN)NC(=O)[C@@H](CC(C)C)NC(=O)[C@H](CC(C)C)NC(=O)[C@H](CCCCN)NC(=O)[C@H](CCCCN)NC(=O)[C@H](CC(C)C)NC(=O)[C@@H](CC(C)C)NC(=O)[C@@H](CCCCN)NC(=O)[C@H](CCCCN)NC(=O)[C@H](CC(C)C)NC(=O)[C@H](CC(C)C)NC(=O)[C@@H](CCCCN)NC(=O)[C@H](CC(C)C)NC(=O)[C@H](CC(C)C)NC(=O)CNC(=O)CNC(=O)[C@H](CCCNC(=N)N)NC(=O)[C@@H]1CCCN1C(=O)[C@H](Cc1ccc(O)cc1)NC(=O)[C@@H]1CCCN1C(=O)[C@@H](NC(=O)[C@H](CCCNC(=N)N)NC(=O)CN)C(C)C)C(=O)O [Sema3A(aa371-377)-nLytic] (H-GRVPYPRGGLL[dK]LLK[dK][dL]LKKL[dL]KL-OH; N-terminus and C-terminus assumed)
IC50 (HEK293T; 48 h): > 20 µM
IC50 ([2]; 48 h): > 50 µM

Molecule: YHWYGYTPQNVIGGGLKLLKKLLKKLLKLL-NH2 (YHWYGYTPQNVIGGGLK[dL]LK[dK]L[dL][dK]KLL[dK]LL-NH2; N-terminus assumed; SMILES CC[C@H](C)[C@H](NC(=O)[C@@H](NC(=O)[C@H](CC(N)=O)NC(=O)[C@H](CCC(N)=O)NC(=O)[C@@H]1CCCN1C(=O)[C@@H](NC(=O)[C@H](Cc1ccc(O)cc1)NC(=O)CNC(=O)[C@H](Cc1ccc(O)cc1)NC(=O)[C@H](Cc1c[nH]c2ccccc12)NC(=O)[C@H](Cc1c[nH]cn1)NC(=O)[C@@H](N)Cc1ccc(O)cc1)[C@@H](C)O)C(C)C)C(=O)NCC(=O)NCC(=O)NCC(=O)N[C@@H](CC(C)C)C(=O)N[C@@H](CCCCN)C(=O)N[C@H](CC(C)C)C(=O)N[C@@H](CC(C)C)C(=O)N[C@@H](CCCCN)C(=O)N[C@H](CCCCN)C(=O)N[C@@H](CC(C)C)C(=O)N[C@H](CC(C)C)C(=O)N[C@H](CCCCN)C(=O)N[C@@H](CCCCN)C(=O)N[C@@H](CC(C)C)C(=O)N[C@@H](CC(C)C)C(=O)N[C@H](CCCCN)C(=O)N[C@@H](CC(C)C)C(=O)N[C@@H](CC(C)C)C(N)=O) [EB-original lytic peptide]
cell-killing effect of chimeric peptide compared with lytic moiety alone (H322): did not show enhancement of cytotoxic activity

IC50 (MDA-MB-231; 48 h): 29.6 µM
IC50 (BxPC-3; 48 h): 38.5 µM
IC50 (T47D; T47D breast cancer cells, 48 hours (Table 6), read-out: IC50): 12.5 µM
IC50 (BT-20; BT20 breast cancer cells, 48 hours (Table 6)): 38 µM
IC50 (CFPAC-1; CFPAC-1 cancer cells, 48 hours (Table 5)): 22.6 µM
IC50 (SU.86.86): 19.5 µM
IC50 (Panc-1; Panc-1 cancer cells, 48 hours (Table 5)): 28.2 µM
Molecule: CC(C)C[C@H](NC(=O)[C@H](CCCCN)NC(=O)[C@@H](CC(C)C)NC(=O)[C@H](CC(C)C)NC(=O)[C@H](CCCCN)NC(=O)[C@H](CCCCN)NC(=O)[C@H](CC(C)C)NC(=O)[C@@H](CC(C)C)NC(=O)[C@@H](CCCCN)NC(=O)[C@H](CCCCN)NC(=O)[C@H](CC(C)C)NC(=O)[C@H](CC(C)C)NC(=O)[C@@H](CCCCN)NC(=O)[C@H](CC(C)C)NC(=O)[C@@H](N)CC(C)C)C(=O)O [nLytic, LLKLLKKLLKKLLKL] (H-LL[dK]LLK[dK][dL]LKKL[dL]KL-OH; N-terminus and C-terminus assumed)
IC50 ([2]; Pancreatic epithelium normal cells, 48 hours (Table 5), read-out: IC50): > 50 µM

Molecule: NYQWVPYQGRVPYPRGGGKLLLKLLKKLLKLLKKK (Sema3A-lyticL chimeric peptide)
cell-killing effect compared with LyticL alone (SK-BR-3; SKBR3, 72 hours): cell-killing effect was enhanced
cell-killing effect compared with LyticL alone (SU.86.86; SU86.86, 72 hours): cell-killing effect was enhanced

biosensor response compared with wild-type EGFR-binding peptide [3]: some enhancement of biosensor response
Molecule: YKWYGYTPQNVI (EGFR binding peptide) [K-substituted peptide]

Molecule: YHWYGYTPQNVIGGGLKLLKKLLKKLLKLL-NH2 (C-terminal amide; EB-original Lytic peptide; position 18, 21, 23, 24 and 28 are D-amino acids, and -CONH2 is existing at C-terminal.)
cytotoxicity to normal cell line MRC-5 (MRC-5; MRC-5, 72 hours): killed even normal cell line (MRC-5) at lower concentration

biosensor response compared with wild-type EGFR-binding peptide [3]: response of two fold of wild-type
Molecule: YRWYGYTPQNVI (EGFR binding peptide) [R-substituted peptide]
